# Source: patent US10570168B2, “2′ and/or 5′ amino-acid ester phosphoramidate 3′-deoxy adenosine derivatives as anti- cancer compounds” (NuCana plc, priority 2014, dated 2020)
# pIC50: −log10 of the molar value.
# What was measured:
# Experiment in all cases: CellTiterGlo viability assay, initial screening
# Type in all cases: cell-based
# MOLT-4 = settings: Homo sapiens, MOLT-4, 72 h, read-out: IC50 (relative IC50)
# Method: (§1) In vitro viability assays were performed to assess the effects of compounds on cell viability in 7 selected cell lines over 72 hr using the CellTiterGlo (CTG, Promega-G7573) assay. The tests were performed in duplicates with treatment of compounds at 9 points, 3.16 folds titration in 96 well plates over ˜72 hr. The compound starting concentrations were […]. Cell viability assay using CellTiterGlo in 96-well plate were performed. The compound treatment was 72 hrs, under standard growth conditions, and in duplicate. Compounds were dissolved to 40 mM with thawed […]. Compounds were serially diluted at 3.16 fold in thawed DMSO, and warmed to 37° C. before being dissolved in media (2 μl+200 μl). After compounds were dissolved in media (media was also warmed to 37° C.). Media containing compounds were warmed to 37° C. in incubator and then compounds in media were added to cell plates (50 μl+50 μl), in duplicates. The compounds final concentrations were from […] to 19.9 nM. All compound solubilities were checked and recorded again, then the plates were transferred to CO2 tissue culture incubator immediately and incubated for 3 days. DMSO final concentration is 0.5%.
# KG-1 = settings: Homo sapiens, KG-1, 72 h, read-out: IC50 (relative IC50)
# Method: as §1
# HL-60 = settings: Homo sapiens, HL-60, 72 h, read-out: IC50 (relative IC50)
# Method: as §1
# MCF-7 = settings: Homo sapiens, MCF7, 72 h, read-out: IC50 (relative IC50)
# Method: as §1
# K562 = settings: Homo sapiens, K562, 72 h, read-out: IC50 (relative IC50)
# Method: as §1
# CCRF-CEM = settings: Homo sapiens, 72 h, read-out: IC50 (relative IC50)
# Method: as §1
# HepG2 = settings: Homo sapiens, HepG2, 72 h, read-out: IC50 (relative IC50)
# Method: as §1
smiles,measurement,setting,value
"Nc1ncnc2c1ncn2[C@@H]1O[C@H](COP(=O)(NCC(=O)OCc2ccccc2)Oc2ccccc2)C[C@H]1O (stereo partly drawn) [C, Benzyl 2-(((((2S,4R,5R)-5-(6-amino-9H-purin-9-yl)-4-hydroxytetrahydrofuran-2-yl)methoxy)(phenoxy)phosphoryl)amino)acetate]",pIC50,MOLT-4,5.30 to 7.00
same,pIC50,KG-1,< 4.00
same,pIC50,HL-60,4.00 to 4.82
same,pIC50,MCF-7,4.82 to 5.30
same,pIC50,K562,4.82 to 5.30
same,pIC50,CCRF-CEM,4.82 to 5.30
same,pIC50,HepG2,4.00 to 4.82
